Assay results as given in PubChem BioAssay (NCI).
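Cells were grown in 96-well plates and exposed to each compound for 48 hours at five concentrations; endpoints were interpolated linearly between bracketing concentrations, or set to the highest concentration if not reached. GI50 is the concentration that inhibits growth by half. Definition used: TGI = concentration required for complete inhibition of growth.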

Assays:
Assay in all cases: DTP human tumour cell line panel, 48 h
A498 renal = system: A498 renal
CCRF-CEM leukemia = system: CCRF-CEM leukemia
DU-145 prostate = system: DU-145 prostate
HOP-62 NSCLC = system: HOP-62 NSCLC
IGROV1 ovarian = system: IGROV1 ovarian
MCF7 breast = system: MCF7 breast
MDA-MB-231 breast = system: MDA-MB-231 breast
NCI-H460 lung = system: NCI-H460 lung
SK-MEL-28 melanoma = system: SK-MEL-28 melanoma
SN12C renal = system: SN12C renal

O=C(/C=C/c1ccccc1)c1cc(CN2CCOCC2)c(O)c(CN2CCOCC2)c1
TGI (A498 renal): 28.2 µM
TGI (CCRF-CEM leukemia): 16.7 µM
TGI (DU-145 prostate): 29.8 µM
TGI (HOP-62 NSCLC): 39.3 µM
TGI (IGROV1 ovarian): > 100 µM
TGI (MCF7 breast): 32.4 µM
TGI (MDA-MB-231 breast): 32.7 µM
TGI (NCI-H460 lung): 19.4 µM
TGI (SK-MEL-28 melanoma): 29.4 µM
TGI (SN12C renal): 25.3 µM

CN(Cc1cnc2nc(N)nc(N)c2n1)c1ccc(C(=O)NC(CCC(=O)O)C(=O)O)c2ccccc12 (configuration not stated)
GI50 (A498 renal): 0.0152 µM
TGI (A498 renal): > 1000 µM
TGI (CCRF-CEM leukemia): > 1000 µM
TGI (DU-145 prostate): > 1000 µM
GI50 (HOP-62 NSCLC): < 0.0244 µM
TGI (IGROV1 ovarian): > 1000 µM
TGI (MCF7 breast): > 1000 µM
GI50 (MDA-MB-231 breast): > 1000 µM
TGI (MDA-MB-231 breast): > 1000 µM
TGI (NCI-H460 lung): > 1000 µM
GI50 (SK-MEL-28 melanoma): 0.0616 µM
TGI (SN12C renal): > 1000 µM

O=C1Nc2noc(=O)nc2NO1
TGI (A498 renal): > 200 µM
TGI (CCRF-CEM leukemia): > 200 µM
TGI (DU-145 prostate): > 200 µM
TGI (HOP-62 NSCLC): > 200 µM
TGI (IGROV1 ovarian): > 200 µM
TGI (MCF7 breast): > 200 µM
TGI (MDA-MB-231 breast): > 200 µM
TGI (NCI-H460 lung): > 200 µM
TGI (SK-MEL-28 melanoma): > 200 µM
TGI (SN12C renal): > 200 µM

CC1(C)C(=O)/C(=C/c2ccccc2)C(C)(C)C1(C)C
TGI (A498 renal): > 96.2 µM
TGI (CCRF-CEM leukemia): > 71.5 µM
TGI (DU-145 prostate): > 100 µM
TGI (HOP-62 NSCLC): 98.9 µM
TGI (IGROV1 ovarian): > 100 µM
TGI (MCF7 breast): > 100 µM
TGI (MDA-MB-231 breast): > 100 µM
TGI (NCI-H460 lung): > 100 µM
TGI (SK-MEL-28 melanoma): > 100 µM
TGI (SN12C renal): > 100 µM

COc1cc(C=O)cc(C=Nc2ccc(Br)cc2)c1O
TGI (A498 renal): 40.7 µM
TGI (CCRF-CEM leukemia): 27.7 µM
TGI (DU-145 prostate): > 100 µM
TGI (HOP-62 NSCLC): 55.9 µM
TGI (IGROV1 ovarian): > 100 µM
TGI (MCF7 breast): > 100 µM
TGI (MDA-MB-231 breast): 37.8 µM
TGI (NCI-H460 lung): 37.5 µM
TGI (SK-MEL-28 melanoma): > 100 µM
TGI (SN12C renal): 32.7 µM

COC(=O)CCC(C)[C@H]1CCC2C3CC[C@@H]4CC5(CC[C@]4(C)C3C[C@H](OC(C)=O)[C@@]21C)OOC1(CCCCC1)OO5 (some centres not stated)
TGI (A498 renal): > 100 µM
TGI (CCRF-CEM leukemia): > 100 µM
TGI (DU-145 prostate): 43.1 µM
TGI (HOP-62 NSCLC): > 100 µM
TGI (IGROV1 ovarian): 5.48 µM
TGI (MCF7 breast): > 100 µM
TGI (MDA-MB-231 breast): > 100 µM
TGI (NCI-H460 lung): > 100 µM
TGI (SK-MEL-28 melanoma): > 100 µM
TGI (SN12C renal): > 100 µM

CCCCCCCCCCCCCCCCNc1nc(=O)n(C2OC(C)C(O)C2O)cc1F (configuration not stated)
TGI (A498 renal): 39.1 µM
TGI (CCRF-CEM leukemia): 42.6 µM
TGI (DU-145 prostate): 36 µM
TGI (HOP-62 NSCLC): 33.8 µM
TGI (IGROV1 ovarian): 37.6 µM
TGI (MCF7 breast): 33 µM
TGI (MDA-MB-231 breast): 42 µM
TGI (NCI-H460 lung): 33.9 µM
TGI (SK-MEL-28 melanoma): 37.5 µM
TGI (SN12C renal): 40.6 µM

COc1cc2c(cc1O)NC(=O)[C@@H]1C[C@@H](O)CN1C2=O
TGI (A498 renal): > 100 µM
TGI (CCRF-CEM leukemia): > 100 µM
TGI (DU-145 prostate): > 100 µM
TGI (HOP-62 NSCLC): > 100 µM
TGI (IGROV1 ovarian): > 100 µM
TGI (MCF7 breast): > 100 µM
TGI (MDA-MB-231 breast): > 100 µM
TGI (NCI-H460 lung): > 100 µM
TGI (SK-MEL-28 melanoma): > 100 µM
TGI (SN12C renal): > 100 µM

CCNC(=S)N/N=C(/C)c1cccc(/C(C)=N\NC(=S)NCC)n1
TGI (A498 renal): 56.7 µM
TGI (CCRF-CEM leukemia): > 19.1 µM
TGI (DU-145 prostate): > 36.6 µM
TGI (HOP-62 NSCLC): > 100 µM
TGI (IGROV1 ovarian): > 64 µM
TGI (MCF7 breast): 31.2 µM
TGI (MDA-MB-231 breast): > 84.2 µM
TGI (NCI-H460 lung): 12.5 µM
TGI (SK-MEL-28 melanoma): > 100 µM
TGI (SN12C renal): > 65.6 µM

CC(C)OC(=O)C(NC(=O)C(CC(=O)OCc1ccccc1)NC(=O)OCc1ccccc1)NC(=O)C1C(C)(C)CCC1(C)C (configuration not stated)
TGI (A498 renal): 4.37 µM
TGI (CCRF-CEM leukemia): > 41.2 µM
TGI (DU-145 prostate): > 52.4 µM
TGI (HOP-62 NSCLC): 18.7 µM
TGI (IGROV1 ovarian): 64.2 µM
TGI (MCF7 breast): 28.4 µM
TGI (MDA-MB-231 breast): 7.82 µM
TGI (NCI-H460 lung): 31.6 µM
TGI (SK-MEL-28 melanoma): > 56.2 µM
TGI (SN12C renal): 15.1 µM

Cc1n[nH]c(=O)n1-n1cccc1
TGI (A498 renal): > 100 µM
TGI (CCRF-CEM leukemia): > 100 µM
TGI (DU-145 prostate): > 100 µM
TGI (HOP-62 NSCLC): > 100 µM
TGI (IGROV1 ovarian): > 100 µM
TGI (MCF7 breast): > 100 µM
TGI (MDA-MB-231 breast): > 100 µM
TGI (NCI-H460 lung): > 100 µM
TGI (SK-MEL-28 melanoma): > 100 µM
TGI (SN12C renal): > 100 µM

Cc1cc(NC(=O)NC(=O)c2ccccc2NC(=O)CN(C)C)ccc1Oc1ncc(Br)cn1
TGI (A498 renal): 17 µM
TGI (CCRF-CEM leukemia): > 63.8 µM
TGI (DU-145 prostate): > 100 µM
TGI (HOP-62 NSCLC): > 76.4 µM
TGI (IGROV1 ovarian): > 100 µM
TGI (MCF7 breast): > 100 µM
TGI (MDA-MB-231 breast): > 78.1 µM
TGI (NCI-H460 lung): > 95 µM
TGI (SK-MEL-28 melanoma): > 56.2 µM
TGI (SN12C renal): > 100 µM

O=c1c2[nH]cnc2n(-c2ccccc2)c(=S)n1-c1ccccc1
TGI (A498 renal): > 100 µM
TGI (CCRF-CEM leukemia): > 100 µM
TGI (DU-145 prostate): > 100 µM
TGI (HOP-62 NSCLC): > 100 µM
TGI (IGROV1 ovarian): > 100 µM
TGI (MCF7 breast): > 100 µM
TGI (MDA-MB-231 breast): > 100 µM
TGI (NCI-H460 lung): > 100 µM
TGI (SK-MEL-28 melanoma): > 100 µM
TGI (SN12C renal): > 100 µM

Clc1[nH]nc2ccccc12
TGI (A498 renal): > 100 µM
TGI (CCRF-CEM leukemia): > 100 µM
TGI (DU-145 prostate): > 100 µM
TGI (HOP-62 NSCLC): > 100 µM
TGI (IGROV1 ovarian): > 100 µM
TGI (MCF7 breast): > 100 µM
TGI (MDA-MB-231 breast): > 100 µM
TGI (NCI-H460 lung): > 100 µM
TGI (SK-MEL-28 melanoma): > 100 µM
TGI (SN12C renal): > 100 µM

BrC1(c2ccccc2)C[n+]2c(-c3ccccc3)cc(-c3ccccc3)cc2-c2ccccc21 (configuration not stated)
TGI (A498 renal): 9.32 µM
TGI (CCRF-CEM leukemia): 21.2 µM
TGI (DU-145 prostate): 13.2 µM
TGI (HOP-62 NSCLC): 7.41 µM
TGI (IGROV1 ovarian): 5.14 µM
TGI (MCF7 breast): 0.735 µM
TGI (MDA-MB-231 breast): 1.63 µM
TGI (NCI-H460 lung): 6.99 µM
TGI (SK-MEL-28 melanoma): 21.2 µM
TGI (SN12C renal): 16.7 µM

C/C(=N\NC(=S)NC(C)(C)C)c1nc2ncccc2[nH]1
TGI (A498 renal): > 100 µM
TGI (CCRF-CEM leukemia): 35.1 µM
TGI (DU-145 prostate): > 57.5 µM
TGI (HOP-62 NSCLC): > 84.9 µM
TGI (IGROV1 ovarian): 50.6 µM
TGI (MCF7 breast): > 100 µM
TGI (MDA-MB-231 breast): > 100 µM
TGI (NCI-H460 lung): 55 µM
TGI (SK-MEL-28 melanoma): > 100 µM
TGI (SN12C renal): > 100 µM

O=C(Nc1ccc(-n2cc(-c3ccncc3)c(-c3ccc(O)c(Cl)c3)n2)cc1)Nc1cc(C(F)(F)F)cc(C(F)(F)F)c1
GI50 (A498 renal): 3.68 µM
TGI (A498 renal): 16.3 µM
GI50 (CCRF-CEM leukemia): 4.06 µM
TGI (CCRF-CEM leukemia): 19.2 µM
GI50 (DU-145 prostate): 5.97 µM
TGI (DU-145 prostate): 18.9 µM
GI50 (HOP-62 NSCLC): 5.02 µM
TGI (HOP-62 NSCLC): 17.3 µM
GI50 (IGROV1 ovarian): 4.61 µM
TGI (IGROV1 ovarian): 18.9 µM
GI50 (MCF7 breast): 3.3 µM
TGI (MCF7 breast): 13.2 µM
GI50 (MDA-MB-231 breast): 3.61 µM
TGI (MDA-MB-231 breast): 14.6 µM
GI50 (NCI-H460 lung): 3.69 µM
TGI (NCI-H460 lung): 14.6 µM
GI50 (SK-MEL-28 melanoma): 4.48 µM
TGI (SK-MEL-28 melanoma): 16.5 µM
GI50 (SN12C renal): 4.12 µM
TGI (SN12C renal): 16.3 µM
